In patent publication US6121431A, “Nucleoside derivatives” (Medivir AB, priority 1990, dated 2000):

System: human immuno deficiency virus
Assay: Effect of compounds of the formula I on HIV in H9 cells (HIV multiplication in cell culture, HIV antigen containing cells)
Type: cell-based
Settings: Human immunodeficiency virus 1, HIV (HTLV-IIIB), 6-7 days, 37° C., read-out: Concentration for 50% inhibition (IC50) of human immuno deficiency virus multiplication in cell culture
Description: Test I. Effect of compounds of the formula I on HIV in H9 cells
HIV Infection of H9 Cells
H9 cells, 10^5 cells per well on a 24 well plate, suspended in 2 ml RPMI-medium containing 10% fetal calf serum […] penicillin, 10 mg/mil streptomycin sulfate and 2 mg/ml polybrene are exposed to HIV (HTLV-IIIB) and different concentrations of the test compounds. The plates are incubated at 37° C. in 5% CO2 for 6-7 days. The contents in each well is then homogenized with a pipette and transferred to a centrifuge tube. After centrifugation for 10 min at 1500 rpm the supernatant is removed and the cell pellet is analyzed by fixing in methanol on glass plates. Human HIV positive serum diluted 1:80 or 1:160 is added and incubated for 30 min at 37° C. The plate is then washed with phosphate-buffered saline (PBS) containing Ca^2+ and Mg^2+. Sheep antihuman conjugate (FITC) is added and after a new incubation the plate is again washed with PBS. Contrast staining is done with Evans blue and after drying the frequency of HIV antigen containing cells is determined in a microscope.

SMILES | IC50
Nc1ccn([C@H]2C[C@H](CO)[C@@H](CO)O2)c(=O)n1 [1-2',3'-Dideoxy-3'-C-(hydroxymethyl)-β-D-erythropentofuranosyl]-cytosine] | 0.01 µM
Cc1cn([C@@H]2C[C@H](CO)[C@@H](CO)O2)c(=O)[nH]c1=O [1-(2',3'-Dideoxy-3'-C-(hydroxymethyl)-α-D-erythro-pentafuranosyl]thymine] | 10 µM
Nc1ccn([C@@H]2C[C@H](CO)[C@@H](CO)O2)c(=O)n1 [1-[2',3'-Dideoxy-3'-C-(hydroxymethyl)-α-D-erythro-pentafuranosyl]cytosine] | 5 µM
Cc1cn([C@H]2C[C@H](CO)[C@@H](CO)O2)c(=O)[nH]c1=O [1-[2',3'-Dideoxy-3'-C-(hydroxymethyl)-β-D-erythro-pentofuranosyl]-thymine] | 5 µM
Nc1ncnc2c1ncn2[C@@H]1C[C@H](CO)[C@@H](CO)O1 [9-[2',3'-Dideoxy-3'-C-(hydroxymethyl)-α-D-erythropentofuranosyl]-adenosine] | 10 µM

System: H9 cells
Assay: Cellular toxicity on H9 cells (inhibition of cell multiplication)
Type: cell-based
Settings: Homo sapiens, 1 mM, 48 h
Description: Test II. Cellular toxicity
H9 cells, 2×10^7 cells per plate, are incubated in RPMI-1640 medium containing 10% fetal calf serum, 70 mg/l penicillin, 100 mg/l streptomycin and 10 mM hepes, in absence or presence of test compounds. The number of cells per plate is determined after 48 h. Cells incubated in the absence of test compounds then underwent two cell division cycles.
F5000 cells, which are human embryo cells, 1×10^5 cells per plate, are incubated in Eagle's minimal essential medium, supplemented with Earle's sals, non-essential amino acids, 10% fetal calf serum, 10 mM hepes, 70 mg/l penicillin and 100 mg/l streptomycin, in absence or presence of test compounds. The number of cells per plate is determined after 48 h. Cells incubated in the absence of test compounds underwent one cell division cycle.

SMILES | inhibition at 1000 µM
Nc1ccn([C@H]2C[C@H](CO)[C@@H](CO)O2)c(=O)n1 [1-2',3'-Dideoxy-3'-C-(hydroxymethyl)-β-D-erythropentofuranosyl]-cytosine] | 50%
